Assay results published in patent US6479435B1, “Diaryl ethers and processes for their preparation and herbicidal and desiccant compositions containing them” (ISK Americas Incorporated, priority 1997, dated 2002).

Assays:
Type in all cases: in vivo
[1] = tested on: green foxtail (Setaria viridis, SETVI); experiment: Pre-emerge greenhouse herbicide test, phytotoxicity rating; conditions: 14 days after application, rating scale 0-100
Method in brief: (§1)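 Seeds sown in sandy loam mix one day before track-sprayer application of compounds in acetone at 125–1000 g ai/ha (187 l/ha), then surface-watered to incorporate and bottom-watered. Visual rating 14 days after application on a 0–100 scale (0 = no damage, 100 = all plants dead).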

[2] = tested on: ivyleaf morningglory (Ipomoea hederacea, IPOHE); experiment: as above; conditions: 14 days after application, rating scale 0-100
Method in brief: as §1

[3] = tested on: redroot pigweed (Amaranthus retroflexus, AMARE); experiment: as above; conditions: 14 days after application, rating scale 0-100
Method in brief: as §1

[4] = tested on: sicklepod (Cassia obtusifolia, CASOB); experiment: as above; conditions: 14 days after application, rating scale 0-100
Method in brief: as §1

[5] = tested on: lambsquarters (Chenopodium album, CHEAL); experiment: as above; conditions: 14 days after application, rating scale 0-100
Method in brief: as §1

[6] = tested on: large crabgrass (Digitaria sanguinalis, DIGSA); experiment: as above; conditions: 14 days after application, rating scale 0-100
Method in brief: as §1

[7] = tested on: Johnsongrass (Sorghum halepense, SORHA); experiment: as above; conditions: 14 days after application, rating scale 0-100
Method in brief: as §1

[8] = tested on: velvetleaf (Abutilon theophrasti, ABUTH); experiment: as above; conditions: 14 days after application, rating scale 0-100
Method in brief: as §1

[9] = tested on: common ragweed (Ambrosia artemisiifolia L., AMBEL); experiment: as above; conditions: 14 days after application, rating scale 0-100
Method in brief: as §1

[10] = tested on: barnyardgrass (Echinochloa crusgalli, ECHCG); experiment: as above; conditions: 14 days after application, rating scale 0-100
Method in brief: as §1

[11] = tested on: common ragweed (Ambrosia artemisiifolia L., AMBEL); experiment: Post-emerge greenhouse herbicide test, phytotoxicity rating; conditions: 14 days after application
Method in brief: (§2)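 Compounds in acetone with 0.25% v/v non-ionic surfactant were track-sprayed at 187 l/ha over plants at the 2-3 leaf stage, at 63 to 1000 g ai/ha. Pots were bottom-watered. Injury was scored visually 14 days later on a 0-100 scale, where 0 is no damage and 100 is complete plant death.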

[12] = tested on: field corn (Zea mays L., var. Dekalb 535, CORN); experiment: Post-emerge greenhouse test, crop damage rating; conditions: 14 days after application
Method in brief: as §2

[13] = tested on: upland rice (Oryza sp., var.Tebonnet, RICE); experiment: Post-emerge greenhouse test, crop damage rating; conditions: 14 days after application
Method in brief: as §2

[14] = tested on: field corn (Zea mays L., var. Dekalb 535, CORN); experiment: Pre-emerge greenhouse test, crop damage rating; conditions: 14 days after application, rating scale 0-100
Method in brief: as §1

[15] = tested on: upland rice (Oryza sp., var.Tebonnet, RICE); experiment: Pre-emerge greenhouse test, crop damage rating; conditions: 14 days after application, rating scale 0-100
Method in brief: as §1

[16] = tested on: green foxtail (Setaria viridis, SETVI); experiment: Post-emerge greenhouse herbicide test, phytotoxicity rating; conditions: 14 days after application
Method in brief: as §2

[17] = tested on: ivyleaf morningglory (Ipomoea hederacea, IPOHE); experiment: as above; conditions: 14 days after application
Method in brief: as §2

[18] = tested on: redroot pigweed (Amaranthus retroflexus, AMARE); experiment: as above; conditions: 14 days after application
Method in brief: as §2

[19] = tested on: sicklepod (Cassia obtusifolia, CASOB); experiment: as above; conditions: 14 days after application
Method in brief: as §2

[20] = tested on: lambsquarters (Chenopodium album, CHEAL); experiment: as above; conditions: 14 days after application
Method in brief: as §2

[21] = tested on: large crabgrass (Digitaria sanguinalis, DIGSA); experiment: as above; conditions: 14 days after application
Method in brief: as §2

[22] = tested on: Johnsongrass (Sorghum halepense, SORHA); experiment: as above; conditions: 14 days after application
Method in brief: as §2

[23] = tested on: velvetleaf (Abutilon theophrasti, ABUTH); experiment: as above; conditions: 14 days after application
Method in brief: as §2

[24] = tested on: barnyardgrass (Echinochloa crusgalli, ECHCG); experiment: as above; conditions: 14 days after application
Method in brief: as §2

[25] = tested on: soybean (Glycine max L., var. Pella 86, SOY); experiment: Pre-emerge greenhouse test, crop damage rating; conditions: 14 days after application, rating scale 0-100
Method in brief: as §1

[26] = tested on: soybean (Glycine max L., var. Pella 86, SOY); experiment: Post-emerge greenhouse test, crop damage rating; conditions: 14 days after application
Method in brief: as §2

Nc1ccc(Oc2cc(-n3c(=O)n4n(c3=S)CCCC4)c(F)cc2Cl)cc1 [Compound 8-9]
0: phytotoxicity rating SETVI ([1]; 125 g ai/ha) | phytotoxicity rating IPOHE ([2]; 125 g ai/ha) | phytotoxicity rating CASOB ([4]; 125 g ai/ha) | phytotoxicity rating DIGSA ([6]; 125 g ai/ha) | phytotoxicity rating DIGSA ([6]; 500 g ai/ha) | phytotoxicity rating SORHA ([7]; 125 g ai/ha) | phytotoxicity rating SORHA ([7]; 500 g ai/ha) | phytotoxicity rating ECHCG ([10]; 125 g ai/ha) | phytotoxicity rating ECHCG ([10]; 500 g ai/ha) | CORN crop damage rating (0-100) ([12]; 63 g al/ha) | RICE crop damage rating (0-100) ([13]; 63 g al/ha) | RICE crop damage rating (0-100) ([13]; 500 g al/ha) | crop damage rating CORN ([14]; 125 g ai/ha) | crop damage rating CORN ([14]; 500 g ai/ha) | crop damage rating RICE ([15]; 125 g ai/ha) | crop damage rating RICE ([15]; 500 g ai/ha) | SETVI phytotoxicity rating (0-100) ([16]; 63 g al/ha) | CASOB phytotoxicity rating (0-100) ([19]; 63 g al/ha) | DIGSA phytotoxicity rating (0-100) ([21]; 63 g al/ha) | SORHA phytotoxicity rating (0-100) ([22]; 63 g al/ha) | ECHCG phytotoxicity rating (0-100) ([24]; 63 g al/ha) | ECHCG phytotoxicity rating (0-100) ([24]; 500 g al/ha) | crop damage rating SOY ([25]; 125 g ai/ha) | crop damage rating SOY ([25]; 500 g ai/ha)
10: phytotoxicity rating IPOHE ([2]; 500 g ai/ha) | CORN crop damage rating (0-100) ([12]; 500 g al/ha) | DIGSA phytotoxicity rating (0-100) ([21]; 500 g al/ha)
90: AMARE phytotoxicity rating (0-100) ([18]; 63 g al/ha)
100: phytotoxicity rating AMARE ([3]; 125 g ai/ha) | phytotoxicity rating CHEAL ([5]; 500 g ai/ha) | phytotoxicity rating ABUTH ([8]; 500 g ai/ha) | IPOHE phytotoxicity rating (0-100) ([17]; 500 g al/ha) | AMARE phytotoxicity rating (0-100) ([18]; 500 g al/ha) | CASOB phytotoxicity rating (0-100) ([19]; 500 g al/ha) | ABUTH phytotoxicity rating (0-100) ([23]; 500 g al/ha)
60: phytotoxicity rating ABUTH ([8]; 125 g ai/ha) | CHEAL phytotoxicity rating (0-100) ([20]; 63 g al/ha)
70: phytotoxicity rating CHEAL ([5]; 125 g ai/ha) | SOY crop damage rating (0-100) ([26]; 500 g al/ha)
95: phytotoxicity rating AMARE ([3]; 500 g ai/ha) | CHEAL phytotoxicity rating (0-100) ([20]; 500 g al/ha)
40: phytotoxicity rating CASOB ([4]; 500 g ai/ha) | IPOHE phytotoxicity rating (0-100) ([17]; 63 g al/ha)
20: SOY crop damage rating (0-100) ([26]; 63 g al/ha)
50: ABUTH phytotoxicity rating (0-100) ([23]; 63 g al/ha)
30: phytotoxicity rating SETVI ([1]; 500 g ai/ha) | phytotoxicity rating AMBEL ([9]; 125 g ai/ha) | phytotoxicity rating AMBEL ([9]; 500 g ai/ha) | AMBEL phytotoxicity rating (0-100) ([11]; 63 g al/ha) | SETVI phytotoxicity rating (0-100) ([16]; 500 g al/ha) | SORHA phytotoxicity rating (0-100) ([22]; 500 g al/ha)
80: AMBEL phytotoxicity rating (0-100) ([11]; 500 g al/ha)

O=c1n(-c2cc(Oc3ccc([N+](=O)[O-])cc3C(F)(F)F)c(Cl)cc2F)c(=S)n2n1CCCC2 [Compound 8-14]
40: AMBEL phytotoxicity rating (0-100) ([11]; 63 g al/ha) | CASOB phytotoxicity rating (0-100) ([19]; 63 g al/ha)
60: phytotoxicity rating ABUTH ([8]; 500 g ai/ha) | AMBEL phytotoxicity rating (0-100) ([11]; 500 g al/ha)
30: phytotoxicity rating ABUTH ([8]; 125 g ai/ha) | phytotoxicity rating AMBEL ([9]; 500 g ai/ha) | SETVI phytotoxicity rating (0-100) ([16]; 63 g al/ha) | CASOB phytotoxicity rating (0-100) ([19]; 500 g al/ha) | SOY crop damage rating (0-100) ([26]; 63 g al/ha) | SOY crop damage rating (0-100) ([26]; 500 g al/ha)
80: phytotoxicity rating CHEAL ([5]; 125 g ai/ha) | IPOHE phytotoxicity rating (0-100) ([17]; 63 g al/ha) | CHEAL phytotoxicity rating (0-100) ([20]; 63 g al/ha)
5: CORN crop damage rating (0-100) ([12]; 63 g al/ha) | CORN crop damage rating (0-100) ([12]; 500 g al/ha)
50: phytotoxicity rating SETVI ([1]; 500 g ai/ha)
95: phytotoxicity rating AMARE ([3]; 500 g ai/ha) | ABUTH phytotoxicity rating (0-100) ([23]; 63 g al/ha) | ABUTH phytotoxicity rating (0-100) ([23]; 500 g al/ha)
20: phytotoxicity rating DIGSA ([6]; 500 g ai/ha) | SETVI phytotoxicity rating (0-100) ([16]; 500 g al/ha)
100: phytotoxicity rating CHEAL ([5]; 500 g ai/ha)
70: phytotoxicity rating AMARE ([3]; 125 g ai/ha) | AMARE phytotoxicity rating (0-100) ([18]; 63 g al/ha)
85: IPOHE phytotoxicity rating (0-100) ([17]; 500 g al/ha)
0: phytotoxicity rating SETVI ([1]; 125 g ai/ha) | phytotoxicity rating IPOHE ([2]; 125 g ai/ha) | phytotoxicity rating IPOHE ([2]; 500 g ai/ha) | phytotoxicity rating CASOB ([4]; 125 g ai/ha) | phytotoxicity rating CASOB ([4]; 500 g ai/ha) | phytotoxicity rating DIGSA ([6]; 125 g ai/ha) | phytotoxicity rating SORHA ([7]; 125 g ai/ha) | phytotoxicity rating SORHA ([7]; 500 g ai/ha) | phytotoxicity rating AMBEL ([9]; 125 g ai/ha) | phytotoxicity rating ECHCG ([10]; 125 g ai/ha) | phytotoxicity rating ECHCG ([10]; 500 g ai/ha) | RICE crop damage rating (0-100) ([13]; 63 g al/ha) | RICE crop damage rating (0-100) ([13]; 500 g al/ha) | crop damage rating CORN ([14]; 125 g ai/ha) | crop damage rating CORN ([14]; 500 g ai/ha) | crop damage rating RICE ([15]; 125 g ai/ha) | crop damage rating RICE ([15]; 500 g ai/ha) | DIGSA phytotoxicity rating (0-100) ([21]; 63 g al/ha) | DIGSA phytotoxicity rating (0-100) ([21]; 500 g al/ha) | SORHA phytotoxicity rating (0-100) ([22]; 63 g al/ha) | SORHA phytotoxicity rating (0-100) ([22]; 500 g al/ha) | ECHCG phytotoxicity rating (0-100) ([24]; 63 g al/ha) | ECHCG phytotoxicity rating (0-100) ([24]; 500 g al/ha) | crop damage rating SOY ([25]; 125 g ai/ha) | crop damage rating SOY ([25]; 500 g ai/ha)
90: AMARE phytotoxicity rating (0-100) ([18]; 500 g al/ha) | CHEAL phytotoxicity rating (0-100) ([20]; 500 g al/ha)
